Experimental findings from US9499550B2 (BRISTOL-MYERS SQUIBB COMPANY, priority 2012, dated 2016) are described below.

The subject of test [1] is HCV genotype 1a (H77 strain) replicon in HUH-7 cells. The experiment in a line: HCV replicon luciferase reporter assay, genotype 1a. In kind it is cell-based. The settings on record: Hepatitis C virus, Huh-7, 72 h, HCV genotype 1a replicon luciferase, 3 days incubation, read-out: LE_1a (EC50, range). An outline of the steps: (§1)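 Replicon inhibition for both genotypes was measured as Renilla luciferase signal (EnduRen, 7.5 μM final, 2 h) after 3-day, 37° C exposure of replicon-bearing HUH-7 cells in 4% FCS DMEM, 0.5% DMSO. The 1b construct carries S1179I; the 1a H77 construct carries P1496L and S2204I. Twenty-point, 3-fold dilutions were fitted four-parametrically for EC50, and CC50 was taken from multiplexed Cell Titer-Blue.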

The test system of test [2] is HCV genotype 1b (Con1) replicon in HUH-7 cells. Briefly: HCV replicon luciferase reporter assay, genotype 1b. The following applies: Hepatitis C virus, Huh-7, 72 h, HCV genotype 1b replicon luciferase, 3 days incubation, read-out: LE_1b (EC50, range). In kind it is cell-based. The method in brief: as §1

pEC50: −log10 of the molar value. Like-named read-outs stand apart in the source and are kept apart here.

For the molecule `COc1ccc2c(O[C@@H]3C[C@H]4C(=O)N[C@]5(C(=O)NS(=O)(=O)C6(C)CC6)C[C@H]5/C=C\CC[C@@H](C)C[C@@H](C)[C@H](NC(=O)OC(C)(C)C(F)(F)F)C(=O)N4C3)cc(-c3ccc(OC(C)C)cc3)nc2c1` [Compound 4172], the pEC50 in test [1] (GETYPE1A) and in test [2] (GETYPE1B) was > 8.26 throughout.

As to `COc1ccc2c(O[C@@H]3C[C@H]4C(=O)N[C@]5(C(=O)NS(=O)(=O)C6(C)CC6)C[C@H]5/C=C\CC[C@@H](C)C[C@@H](C)[C@H](NC(=O)OC(C)(C)C)C(=O)N4C3)ncc(N3CCN(CC(F)F)CC3)c2c1` [Compound 4173], the pEC50 in test [1] (GETYPE1A) and in test [2] (GETYPE1B) was > 8.26 in each case.

For the molecule `CC[C@@H]1C[C@H](C)CC/C=C\[C@@H]2C[C@@]2(C(=O)NS(=O)(=O)C2(C)CC2)NC(=O)[C@@H]2C[C@@H](Oc3nccc4cc(OC)c(F)cc34)CN2C(=O)[C@H]1NC(=O)OC(C)(C)C` [Compound 4175, tert-butyl (2R,6S,7R,9R,13aS,14aR,16aS,Z)-7-ethyl-2-(7-fluoro-6-methoxyisoquinolin-1-yloxy)-9-methyl-14a-(1-methylcyclopropylsulfonylcarbamoyl)-5,16-dioxo-1,2,3,5,6,7,8,9,10,11,13a,14,14a,15,16,16a-hexadecahydrocyclopropa[e]pyrrolo[1,2-a][1,4]diazacyclopentadecin-6-ylcarbamate], the pEC50 in test [1] and in test [2] was > 8.26 throughout.

Consider `CC[C@@H]1C[C@H](C)CC/C=C\[C@@H]2C[C@@]2(C(=O)NS(=O)(=O)C2(C)CC2)NC(=O)[C@@H]2C[C@@H](Oc3nccc4cc(OC)ccc34)CN2C(=O)[C@H]1NC(=O)O[C@H](C)C(F)(F)F` [Compound 4177, (R)-1,1,1-trifluoropropan-2-yl (2R,6S,7R,9R,13aS,14aR,16aS,Z)-7-ethyl-2-(6-methoxyisoquinolin-1-yloxy)-9-methyl-14a-(1-methylcyclopropylsulfonylcarbamoyl)-5,16-dioxo-1,2,3,5,6,7,8,9,10,11,13a,14,14a,15,16,16a-hexadecahydrocyclopropa[e]pyrrolo[1,2-a][1,4]diazacyclopentadecin-6-ylcarbamate], for which the pEC50 in test [1] and in test [2] was > 8.26 in each case.

In the case of `COc1ccc2c(O[C@@H]3C[C@H]4C(=O)N[C@]5(C(=O)NS(=O)(=O)C6(C)CC6)C[C@H]5/C=C\CC[C@@H](C)C[C@@H](C)[C@H](NC(=O)OC(C)(C)C(F)(F)F)C(=O)N4C3)ncc(-c3ccc(OC)nc3)c2c1` [Compound 4178], the pEC50 in test [1] (GETYPE1A) and in test [2] (GETYPE1B) was > 8.26 each time.

In the case of `C[C@@H]1CC/C=C\[C@@H]2C[C@@]2(C(=O)NS(=O)(=O)C2(C)CC2)NC(=O)[C@@H]2C[C@@H](Oc3cnc4ccc(F)cc4n3)CN2C(=O)[C@@H](NC(=O)OC(C)(C)C)[C@H](C)C1` [Compound 4179, tert-butyl (2R,6S,7R,9R,13aS,14aR,16aS,Z)-2-(7-fluoroquinoxalin-2-yloxy)-7,9-dimethyl-14a-(1-methylcyclopropylsulfonylcarbamoyl)-5,16-dioxo-1,2,3,5,6,7,8,9,10,11,13a,14,14a,15,16,16a-hexadecahydrocyclopropa[e]pyrrolo[1,2-a][1,4]diazacyclopentadecin-6-ylcarbamate], the pEC50 in test [1] and in test [2] was > 8.26 each time.

As to `CCOc1cnc(O[C@@H]2C[C@H]3C(=O)N[C@]4(C(=O)NS(=O)(=O)C5(C)CC5)C[C@H]4/C=C\CC[C@@H](C)C[C@@H](CC)[C@H](NC(=O)OC(C)(C)C)C(=O)N3C2)c2ccccc12` [Compound 4180, tert-butyl (2R,6S,7R,9R,13aS,14aR,16aS,Z)-2-(4-ethoxyisoquinolin-1-yloxy)-7-ethyl-9-methyl-14a-(1-methylcyclopropylsulfonylcarbamoyl)-5,16-dioxo-1,2,3,5,6,7,8,9,10,11,13a,14,14a,15,16,16a-hexadecahydrocyclopropa[e]pyrrolo[1,2-a][1,4]diazacyclopentadecin-6-ylcarbamate], the pEC50 in test [1] and in test [2] was > 8.26 each time.

In the case of `CC[C@@H]1C[C@H](C)CC/C=C\[C@@H]2C[C@@]2(C(=O)NS(=O)(=O)C2(C)CC2)NC(=O)[C@@H]2C[C@@H](Oc3ncc(OC)c4ccc(F)cc34)CN2C(=O)[C@H]1NC(=O)OC(C)(C)C` [Compound 4181, tert-butyl (2R,6S,7R,9R,13aS,14aR,16aS,Z)-7-ethyl-2-(7-fluoro-4-methoxyisoquinolin-1-yloxy)-9-methyl-14a-(1-methylcyclopropylsulfonylcarbamoyl)-5,16-dioxo-1,2,3,5,6,7,8,9,10,11,13a,14,14a,15,16,16a-hexadecahydrocyclopropa[e]pyrrolo[1,2-a][1,4]diazacyclopentadecin-6-ylcarbamate], the pEC50 in test [1] and in test [2] was > 8.26 each time.

Turning to `CC[C@@H]1C[C@H](C)CC/C=C\[C@@H]2C[C@@]2(C(=O)NS(=O)(=O)C2(C)CC2)NC(=O)[C@@H]2C[C@@H](Oc3nccc4cc(OC)ccc34)CN2C(=O)[C@H]1NC(=O)OC(C)(C)C(F)(F)F` [Compound 4182], the pEC50 in test [1] (GETYPE1A) and in test [2] (GETYPE1B) was > 8.26 each time.

As for `COc1ccc2nc(C(F)(F)F)c(O[C@@H]3C[C@H]4C(=O)N[C@]5(C(=O)NS(=O)(=O)C6(C)CC6)C[C@H]5/C=C\CC[C@@H](C)C[C@@H](C)[C@H](NC(=O)OC(C)(C)C)C(=O)N4C3)nc2c1` [Compound 4183, tert-butyl (2R,6S,7R,9R,13aS,14aR,16aS,Z)-2-(7-methoxy-3-(trifluoromethyl)quinoxalin-2-yloxy)-7,9-dimethyl-14a-(1-methylcyclopropylsulfonylcarbamoyl)-5,16-dioxo-1,2,3,5,6,7,8,9,10,11,13a,14,14a,15,16,16a-hexadecahydrocyclopropa[e]pyrrolo[1,2-a][1,4]diazacyclopentadecin-6-ylcarbamate], the pEC50 in test [1] and in test [2] was > 8.26 in each case.

With `CCOc1cnc(O[C@@H]2C[C@H]3C(=O)N[C@]4(C(=O)NS(=O)(=O)C5CC5)C[C@H]4/C=C\CC[C@@H](C)C[C@@H](CC)[C@H](NC(=O)OC(C)(C)C(F)(F)F)C(=O)N3C2)c2ccccc12` [Compound 4185], the pEC50 in test [1] (GETYPE1A) and in test [2] (GETYPE1B) was > 8.26 throughout.

With `CC[C@@H]1C[C@H](C)CC/C=C\[C@@H]2C[C@@]2(C(=O)NS(=O)(=O)C2(C)CC2)NC(=O)[C@@H]2C[C@@H](Oc3ncc(OC)c4ccc(Cl)cc34)CN2C(=O)[C@H]1NC(=O)OC(C)(C)C(F)(F)F` [Compound 4188], the pEC50 in test [1] (GETYPE1A) and in test [2] (GETYPE1B) was > 8.26 in each case.

Regarding `CC[C@@H]1C[C@H](C)CC/C=C\[C@@H]2C[C@@]2(C(=O)NS(=O)(=O)C2CC2)NC(=O)[C@@H]2C[C@@H](Oc3ncnc4cc(OC)ccc34)CN2C(=O)[C@H]1NC(=O)OC(C)(C)C(F)(F)F` [Compound 4189], the pEC50 in test [1] (GETYPE1A) and in test [2] (GETYPE1B) was > 8.26 each time.

For `CC[C@@H]1C[C@H](C)CC/C=C\[C@@H]2C[C@@]2(C(=O)NS(=O)(=O)C2CC2)NC(=O)[C@@H]2C[C@@H](Oc3ncc(OC)c4ccc(Cl)cc34)CN2C(=O)[C@H]1NC(=O)OC(C)(C)C(F)(F)F` [Compound 4190], the pEC50 in test [1] (GETYPE1A) and in test [2] (GETYPE1B) was > 8.26 throughout.

Turning to `CC[C@@H]1C[C@H](C)CC/C=C\[C@@H]2C[C@@]2(C(=O)NS(=O)(=O)C2(CF)CC2)NC(=O)[C@@H]2C[C@@H](Oc3nccc4cc(OC)c(F)cc34)CN2C(=O)[C@H]1NC(=O)OC(C)(C)C(F)(F)F` [Compound 4193], the pEC50 in test [1] (GETYPE1A) and in test [2] (GETYPE1B) was > 8.26 in each case.
